Entries after “also recorded” stand apart in the source; their conditions may differ.
Key:
[1] = test system: voltage-activated Na+ currents of sdDRGns; experiment: whole-cell voltage-clamp of voltage activated Na+ currents in sdDRGns; format: cell-based, rat; details: 0.1 μg/ml, 0.29 μM (FIG. 1.b)
Protocol: FIG. 1 illustrates the effect of nitenin (0.1 μg/ml) on voltage activated currents recorded from small diameter Dorsal Root Ganglia neurons (sdDRGns) • a) In sdDRGns, voltage-activated outward potassium (K^+) currents were evoked by a depolarizing step to +20 mV (holding potential of −70 mV) preceded by a hyperpolarizing pre-pulse to −120 mV. […] Typical voltage activated K^+ current traces recorded before and in the presence of nitenin (0.1 μg/ml); lower trace corresponding to the current subtraction, fit with a single-exponential function (time constant τ˜150 ms). ii.
(§1) For the electrophysiological recordings of the ex vivo material, voltage-clamp recordings were performed on neurons isolated from rat DRGs (and TGs). Recordings were performed from the soma that often contained the proximal fraction of axon, 1 hour after the end of the cell isolation process (includes enzymatic and mechanical treatment).

[2] = test system: K+ currents of small diameter trigeminal ganglion neurons (sdTGNs); experiment: whole-cell voltage-clamp of K+ currents in sdTGNs; format: cell-based, rat
Protocol: The nitenin analogue compounds of the present application were first obtained from the marine sponge Spongia agaracina captured in Sagres, Portugal, but have also been chemically synthesized.
as §1

[3] = test system: COP rats (CFA injection in the whisker pad of Wistar rats); experiment: chronic orofacial pain (COP) rat model, von Frey filaments; format: in vivo; details: I.V. 1 μg/mL of blood
Source text: Values refer to the mechanical sensitivity to face stimulation (whiskers region) using calibrated von Frey Filaments, and consequently reflecting hyperalgesia when hypersensitive (black filled markers—ipsilateral, injured face-side; Open markers—contralateral, uninjured face-side). Dotted line refers to the average value of the ipsilateral face prior to the CFA injection. a) Induction of the model showing that 3 days after operation, the mechanical sensitivity of the ipsilateral face-sides increase markedly, whereas the one associated with the contralateral leg maintains relatively unchanged, similar to baseline values. […]
(§2) For efficacy studies, nociception was assessed in all animals from all pain models by regular behavioural monitoring, by quantifying the sensitivity to mechanical stimuli with Von Frey filaments, and consequently reflecting hyperalgesia when hypersensitive. […] Intraperitoneal administration was tested in CFA rats (23 days after CFA injection), with 10 times the nitenin quantity administered by I.V. injections. […] Oral administration of nitenin through stomach gavages (endogastric), with 100 times the quantity administered by I.V. injections, was tested in CCI rats (31 days after surgery). […]

CIPN rats (paclitaxel) = experiment: chemotherapy-induced peripheral neuropathy rat model CIPN, von Frey filaments; format: in vivo; details: I.V.; 42 days after paclitaxel
Protocol: […]
as §2

## C/C(=C\C1C/C(=C/CCc2ccoc2)C(=O)O1)CCCc1ccoc1 (centres unmarked) [nitenin]
[1]
  effect on voltage activated Na+ currents: absence of effect
[1]; listed as Nitenin
  effect on voltage activated Na+ currents: not being able to induce relevant changes
[2]
  effect on K+ currents from sdTGNs: inhibited the K^+ currents
[3]
  mechanical sensitivity at the whisker pad region (von Frey): reaching values not different to those obtained during baseline; also recorded: marked reduction of mechanical sensitivity
CIPN rats (paclitaxel)
  sensitivity to mechanical stimuli, both paws: intense decrease of sensitivity to mechanical stimuli

— patent US12336977B2, “Nitenin analogue compounds and their use in the treatment of chronic and acute pain” (SEA4US-BIOTECNOLOGIA E RECURSOS MARINHOS, LDA., priority 2019, dated 2025)
